These results are taken from patent publication US20030220310A1, “Epoxy-steroidal aldosterone antagonist and calcium channel blocker combination therapy for treatment of congestive heart failure” (priority 2003, published 2003).

The data set in a line: X-ray powder diffraction, Form H content of dried solids. To be noted: methyl ethyl ketone solvate dried at 100° C. Format: physicochemical. On the procedure:
For the Siemens D500 powder diffractometer, the raw data was measured for 2q values from 2 to 50, with steps of 0.020 and step periods of two seconds. For the Inel Multipurpose Diffractometer, samples were placed in an aluminum sample holder and raw data was collected for 30 minutes at all two theta values simultaneously.
The weight percent of the diepoxide or 11,12-epoxide in each sample is given in Tables X-6A and X-6B, respectively. A micro-flea magnetic stirrer was added to each scintillation vial along with 1 mL of methyl ethyl ketone. The vials were loosely capped and the solid dissolved by heating to reflux on a hot plate with magnetic stirring. Once the solids were dissolved, the solutions were allowed to cool to room temperature on the hot plate. Magnetic stirring was maintained during the cooling period. After the solutions reached room temperature, the solids were collected by vacuum filtration and immediately analyzed by X-ray powder diffraction (XPRD). The solids were then placed in a 100° C. oven and dried for one hour at ambient pressure. The dried solids were analyzed by XPRD for Form H content by monitoring the area of the Form H diffraction peak at about 12.1 degrees two theta. All XPRD diffraction patterns were recorded using an Inel Multipurpose Diffractometer.
The area for the Form H diffraction peak at about 12.1 degrees two theta and the estimated Form H content for each sample are given in Table X-6C below.

Setting [1] is: 0% 11,12-epoxide in starting eplerenone mixture.
Setting [2] is: 5% 11,12-epoxide in starting eplerenone mixture.

As to `COC(=O)[C@@H]1CC2=CC(=O)CC[C@]2(C)C23O[C@@H]2C[C@@]2(C)[C@@H](CC[C@@]24CCC(=O)O4)[C@H]13` (stereo partly drawn) [eplerenone, Pregn-4-ene-7,21-dicarboxylic acid, 9,11-epoxy-17-hydroxy-3-oxo-,γ-lactone, methyl ester, (7α,11α,17β)-], the “Estimated Weight Percent of Form H” value is, setting by setting: under setting [1], “None Detected”; (1% 11,12-epoxide in starting eplerenone mixture) “None Detected”; under setting [2], “None Detected”; (5% diepoxide in starting eplerenone mixture) 30%. The “Form H Peak Area 12° Two Theta Peak” value runs as follows: under setting [1], “None Detected”; under setting [2], “None Detected”.
